Test results from patent US7696231B2, “Oxindole hydrazide modulators of protein tyrosine phosphatases (PTPs)” (Laboratoires Serono SA, priority 2001, dated 2010).

Columns and labels:
db/db mice [1] = experiment: In vivo assay in db/db mice, fed animals (repeated oral administration); details: 5×50 mg/kg per os once daily during 5 days, blood glucose before and 16 hrs after the last drug administration
Experimental: (§1) The following assay aims at determining the anti-diabetic effect of the test compounds of formula (I), in vivo in db/db mice using either fasted (to determine the postprandial glycemia right after a predetermined diet), or fed animals, to determine glycemia after a predetermined period of treatment.
(§2) 2 groups of db/db mice, 6 animals each, were formed, in the first one mice were fasted during 20 hours, the second one comprises fed (ad libitum) mice.
Group 2: The fed animals (6) were administered (per os) a dose of 5×50 mg/kg of the test compound according to formula (I).
Mice were orally treated once daily during 5 days with compounds of formula (I). Blood glucose was determined before drug administration and 16 hrs after the last drug administration.

db/db mice [2] = experiment: In vivo assay in db/db mice, fasted animals (postprandial glycemia); details: db/db mice fasted 20 hours, 100 mg/kg per os, blood glucose before and 4 hrs after drug administration
Experimental: as §1, §2
Group 1: The fasted animals (6) were administered (per os) a dose of 100 mg/kg of the test compound according to formula (I).
After oral administration with compounds of formula (I), they had access to commercial food (ad libitum). Blood glucose (postprandial glycemia) was determined before and 4 hrs after drug administration.

GLEPP-1 = target: T1, GLEPP-1 (Homo sapiens, UniProt Q16827); experiment: PTP Enzyme Assay (GLEPP-1); format: biochemical; details: catalytic core of human recombinant PTP, DiFMUP substrate at Km, 30 minutes at room temperature; read-out: inhibition (IC50) with regard to GLEPP-1
T1 construct: using the catalytic core of a human recombinant PTP, as an enzyme; made in house
T1 sequence (Q16827 938-1195 limits assumed): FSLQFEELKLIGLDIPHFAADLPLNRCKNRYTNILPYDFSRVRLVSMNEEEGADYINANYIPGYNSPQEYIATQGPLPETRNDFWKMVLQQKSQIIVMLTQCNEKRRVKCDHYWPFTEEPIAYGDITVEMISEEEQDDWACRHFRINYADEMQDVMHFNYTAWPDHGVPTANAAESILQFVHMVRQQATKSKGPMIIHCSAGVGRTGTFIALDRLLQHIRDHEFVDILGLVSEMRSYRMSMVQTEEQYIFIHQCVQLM
Text: (§3) The PTP Enzyme Assay aims at determining the extent of inhibition of the examined PTP (e.g. PTP1B, TC-PTP, PTP-β, DEP-1, LAR, SHP-1, SHP-2, GLEPP-1, PTP-κ, PTP-μ, VHR, hVH5) in the presence of a test compound. The inhibition is illustrated by IC50 values which denote the concentration necessary to achieve an inhibition of 50% of the given PTP.
(§4) The cloning and expression of the catalytic domain of PTPs (e.g. PTP1B, TC-PTP, PTP-β, DEP-1, LAR, SHP-1, SHP-2, GLEPP-1, PTP-κ, PTP-μ, VHR, hVH5) maybe performed as described in J. Biol. Chem. 2000, 275(13), pp 9792-9796.
(§5) Assays were performed in a 96 well plate format, using the catalytic core of a human recombinant PTP, as an enzyme and 6,8-DiFluoro-4-MethylUmbelliferyl Phosphate (DiFMUP, Molecular Probes, D-6567) as a substrate at the Km value which was predetermined for each enzyme. Compounds to be tested were dissolved in 100% DMSO at a concentration of 2 mM. […] The reaction ran for 30 minutes at room temperature before reading the fluorescence intensity on a Perkin-Elmer Victor 2 spectrofluorimeter (excitation at 355 nm, emission at 460 nm, for 0.1 s). The percentage of inhibition relative to the fluorescence observed in the presence of solvent (5% DMSO) alone was determined. The IC50 values for inhibition were determined in triplicates on at least 3 separate occasions.

PTP1B = target: T2, PTP1B (Homo sapiens, UniProt P18031); experiment: PTP Enzyme Assay (PTP1B); format: biochemical; details: catalytic core of human recombinant PTP, DiFMUP substrate at Km, 30 minutes at room temperature; read-out: inhibition (IC50) with regard to PTP1B
T2 construct: using the catalytic core of a human recombinant PTP, as an enzyme; made in house
T2 sequence (P18031 3-277 limits assumed): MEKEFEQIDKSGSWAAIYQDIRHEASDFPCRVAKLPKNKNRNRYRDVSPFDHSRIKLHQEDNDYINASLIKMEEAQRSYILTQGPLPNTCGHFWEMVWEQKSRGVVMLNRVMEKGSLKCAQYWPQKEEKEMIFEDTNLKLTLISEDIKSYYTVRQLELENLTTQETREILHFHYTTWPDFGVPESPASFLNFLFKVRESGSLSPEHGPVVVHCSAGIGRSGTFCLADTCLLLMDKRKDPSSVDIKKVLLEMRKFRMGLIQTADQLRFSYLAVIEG
Text: as §3, §4, §5

IC50 (GLEPP-1) [µM] | IC50 (PTP1B) [µM] | SMILES | reduction of the blood glucose level (db/db mice [1]) [%] | reduction of blood glucose level induced by food intake (postprandial glycemia) (db/db mice [2]) [%]
~0.496 | 0.34 | O=C(CCc1ccccc1)Nc1ccc(C(=O)NN=C2C(=O)Nc3ccc(I)cc32)cc1 [Example 1, N-(4-{[2-(5-Iodo-2-oxo-1,2-dihydro-3H-indol-3-ylidene)hydrazino]carbonyl}phenyl)-3-phenylpropanamide] | 22 | 30
 |  | O=C(COc1ccc([N+](=O)[O-])cc1)NN=C1C(=O)Nc2ccc(I)cc21 [Example 18, N′-(5-Iodo-2-oxo-1,2 dihydro-3H-indol-3-ylidene)-2-(4-nitrophenoxy)acetohydrazide] |  | 34
 |  | COC(=O)c1ccc(OCC(=O)NN=C2C(=O)Nc3ccc(I)cc32)cc1 [Example 23, Methyl 4-{2-[2-(5-iodo-2-oxo-1,2-dihydro-3H-indol-3-ylidene)hydrazino]-2-oxoethoxy}benzoate] | 30 | 
 |  | O=C1Nc2ccc(I)cc2C1=NNC(=O)c1cccc(Oc2ccccc2)c1 [Example 26, N′-(5-Iodo-2-oxo-1,2-dihydro-3H-indol-3-ylidene)-3-phenoxybenzohydrazide] | 17 | 
 |  | O=C1Nc2ccc(I)cc2C1=NNC(=O)c1ccc(NC(=O)c2ccccc2)cc1 [Example 50, N-(4-{[2-(5-Iodo-2-oxo-1,2-dihydro-3H-indol-3-ylidene)hydrazino]-carbonyl}phenyl)benzamide] |  | 30
 | 0.77 | O=C(CCc1cccc(O)c1)Nc1ccc(C(=O)NN=C2C(=O)Nc3ccc(I)cc32)cc1 [Example 70, 3-(3-Hydroxyphenyl)-N-(4-{[2-(5-iodo-2-oxo-1,2-dihydro-3H-indol-3-ylidene)hydrazino]carbonyl}phenyl)propanamide] |  | 
